{"source": "patent US5846731A", "about": "“Peralkylated oligopeptide mixtures” (Torry Pines Institute for Molecular Studies, priority 1993, dated 1998)", "system": "Staphylococcus aureus (ATCC 29213)", "experiment": "Antimicrobial activity against S. aureus (growth inhibition, OD 620 nm)", "assay_type": "cell-based", "conditions": "for IC50: individual permethylated peptides; for MIC: minimum concentration to inhibit about 100 percent bacterial growth", "protocol": "The two types of libraries of positional libraries of Example 5 were also scanned against Staphylococcus aureus a Gram-positive bacterium. Concentrations of those 5× permethylated peptide mixtures that inhibited cellular growth by 50 percent (IC50) values were determined.\nThe permethylated amino acid and peptides were screened against S. aureus, as described before and IC50 and MIC (minimum inhibitory concentration; minimum concentration needed to inhibit about 100 percent bacterial growth) values were determined.\nStaphylococcus aureus (ATCC 29213) were grown overnight (about 18 hours) at 37° C. in Mueller-Hinton (MH) broth. This culture was reinoculated and incubated at 37° C. to reach the exponential phase of bacterial growth; i.e., a final bacterial suspension containing about 10^5 to 5×10^5 colony-forming units (CFU)/ml. The concentration of cells was established by plating 100 μl of different dilutions of the culture solution (e.g., 10^-2, 10^-3 and 10^-4) onto solid agar plates. Following an overnight (about 18 hours) incubation at 37° C., the CFU thus formed were counted on each agar plate.\n96-Well tissue culture plates were utilized, with eight wells per plate containing only medium as control blanks, whereas eight other wells contained medium plus cells as a positive growth control. These controls were used to detect possible medium contamination and to provide a measure of uninhibited growth of the microorganisms.\nFor determination of IC50 values (concentrations necessary to inhibit 50 percent growth of bacteria), peralkylated oligopeptide sets were added to the bacterial suspension at concentrations noted before. The plates were incubated overnight (about 18 hours) at 37° C., and the optical density (OD) determined at 620 nm after different times of incubation. IC50 Values were then determined from the OD data.", "key": {"[1]": {"conditions": "Staphylococcus aureus, ATCC29213, Assay 1"}, "[2]": {"conditions": "Staphylococcus aureus, ATCC29213, Assay 2"}}, "data": [{"molecule": "Ac-FFFFFF-NH2 [N--Ac--hexaPhe, N-acetyl hexaPhe amide]", "values": [{"measurement": "IC50", "setting": "Assay 1", "result": "> 500000", "unit": "nM"}, {"measurement": "MIC", "setting": "Assay 1", "result": "> 500", "unit": "µM"}, {"measurement": "IC50", "setting": "Assay 2", "result": "> 500000", "unit": "nM"}, {"measurement": "MIC", "setting": "Assay 2", "result": "> 500", "unit": "µM"}]}, {"molecule": "CNC(=O)[C@H](Cc1ccccc1)[N+](C)(C)C", "note": "[PerA--F, permethylated Phe N-methylamide]", "values": [{"measurement": "MIC", "setting": "Assay 1", "result": "> 500", "unit": "µM"}, {"measurement": "MIC", "setting": "Assay 2", "result": "> 500", "unit": "µM"}]}, {"molecule": "Cc1onc(-c2ccccc2)c1C(=O)N[C@@H]1C(=O)N2[C@@H]1SC(C)(C)[C@@H]2C(=O)O", "note": "[Oxacillin, oxacillin]", "values": [{"measurement": "MIC", "setting": "Assay 2", "result": 0.125, "unit": "µM"}, {"measurement": "IC50", "setting": "[1]", "result": 42, "unit": "nM"}, {"measurement": "IC50", "setting": "[2]", "result": 370, "unit": "nM"}, {"measurement": "MIC", "setting": "[1]", "result": 0.125, "unit": "µM"}]}, {"molecule": "CC[C@H]1OC(=O)[C@H](C)[C@@H](O[C@H]2C[C@@](C)(OC)[C@@H](O)[C@H](C)O2)[C@H](C)[C@@H](O[C@@H]2O[C@H](C)C[C@H](N(C)C)[C@H]2O)[C@](C)(O)C[C@@H](C)C(=O)[C@H](C)[C@@H](O)[C@]1(C)O", "note": "[Erythromycin, erythromycin]", "values": [{"measurement": "MIC", "setting": "Assay 2", "result": 0.5, "unit": "µM"}, {"measurement": "IC50", "setting": "[1]", "result": 184, "unit": "nM"}, {"measurement": "IC50", "setting": "[2]", "result": 134, "unit": "nM"}, {"measurement": "MIC", "setting": "[1]", "result": 0.5, "unit": "µM"}]}]}
